Test results from PMC6116703, “Ethenesulfonyl fluoride derivatives as telomerase inhibitors: structure-based design, SAR, and anticancer evaluation in vitro” (Journal of Enzyme Inhibition and Medicinal Chemistry, 2018).
Where two headings read alike, the source gives them in different places. Blank lines part the entries; values can stand above or below the molecule they belong to.

What was measured:
telomerase = target: T1, telomerase (Homo sapiens, UniProt O14746); experiment: Telomerase activity TRAP-PCR-ELISA assay (A375 cell extract); assay type: biochemical
T1 construct: endogenous in cells; host or cells: A375 human melanoma cells
Method: Thirty-six compounds were tested in a search for inhibitors of telomerase activity using the TRAP-PCR-ELISA assay. In detail, the A375 cells were firstly maintained in RPMI 1640 buffer (Hyclone, Miami, FL), supplemented with 10% fetal bovineserum (GIBCO, New York, NY), streptomycin (0.1 mg/mL) and penicillin (100 IU/mL) at 37 °C in a humidified atmosphere containing 5% CO2. After trypsinisation, 5 × 10^4 cultured cells in logarithmic growth were seeded into T25 flasks (Corning, New York, NY) and cultured to allow to adherence. […] After 24 h treatment, the cells were harvested by cell scraper orderly followed by washing once with PBS. The cells were lysed in 150 µL RIPA cell lysis buffer (Santa Cruz, Santa Cruz, CA), and incubated on ice for 30 min. The cellular supernatants were obtained via centrifugation at 12,000g for 20 min at 4 °C and stored at –80 °C. The TRAP-PCR-ELISA assay was performed using a telomerase detection kit (Roche, Basel, Switzerland) according to the manufacturer’s protocol. In brief, 2 µL of cell extracts were mixed with 48 µL TRAP reaction mixtures. TRAP primers and Taq polymerase are incubated at 25 °C for 30 min. PCR was then initiated at 94 °C, 120 s for predenaturation and performed using 35 cycles each consisting of 94 °C for 30 s, 50 °C for 30 s, 72 °C for 90 s. Then 20 µL of PCR products were hybridised to a digoxigenin (DIG)-labelled telomeric repeat specific detection probe. And the PCR products were immobilised via the biotin-labelled primer to a streptavidin-coated microtiter plate subsequently. The immobilised DNA fragments were detected with a peroxidase-conjugated anti-DIG antibody and visualised following the addition of the stop regent. The microtitre plate was assessed on TECAN Infinite M200 microplate reader (Mannedorf, Switzerland) at a wavelength of 490 nm, and the final value were presented as mean ± SD[23].

[1] = test system: human hepatoma cell SMMC-7721; experiment: Cell proliferation (MTT) assay, SMMC-7721; assay type: cell-based; conditions: read-out: IC50 SMMC-7721
Method: (§1) The antiproliferative activities evaluation was conducted by using a modified procedure as described in the literature. Briefly, target tumour cells were grown to log phase in RPMI 1640 medium supplemented with 10% fetal bovine serum. After diluting to 3 × 10^4 cells mL^−1 with the complete medium, 100 µL of the obtained cell suspension was added to each well of 96-well culture plates. The subsequent incubation was performed at 37 °C, 5% CO2 atmosphere for 24 h before subjecting to antiproliferation assessment. The tested samples at pre-set concentrations were added to six wells with Doxorubicin (AMD) co-assayed as a positive reference. After 48 h of exposure period, 25 µL of PBS containing 2.5 mg·mL^−1 of MTT was added to each well. After 4 h, the medium was replaced by 150 µL DMSO to dissolve the purple formazan crystals produced. The absorbance at 570 nm of each well was measured using an ELISA plate reader. The data represented the mean of three experiments in triplicate and were expressed as means ± SD using Student’s test.

human melanoma cell A375 = experiment: Cell proliferation (MTT) assay, A375; assay type: cell-based
Method: as §1

[2] = test system: gastric mucosa cell (GES-1); experiment: Proliferative inhibition assay of human normal cell GES-1 (MTT); assay type: cell-based; conditions: Homo sapiens, GES1, normal gastric mucosa cells
Method: as §1
(§2) In order to determine the selective cancer cell toxicity of some title compounds. We subsequently conducted a proliferative inhibition assay with human normal liver cell (L-02) and gastric mucosa cell (GES-1).

[3] = test system: human normal liver cell (L-02); experiment: Proliferative inhibition assay of human normal cell L-02 (MTT); assay type: cell-based; conditions: Homo sapiens, normal liver cells
Method: as §1, §2

[4] = test system: human gastric cancer cells MGC-803; experiment: Cell proliferation (MTT) assay, MGC-803; assay type: cell-based; conditions: read-out: IC50 MGC-803
Method: as §1

[5] = test system: human gastric cancer cells SGC-7901; experiment: Cell proliferation (MTT) assay, SGC-7901; assay type: cell-based; conditions: read-out: IC50 SGC-7901
Method: as §1

[6] = test system: human breast cancer cell MDA-MB-231; experiment: Cell proliferation (MTT) assay, MDA-MB-231; assay type: cell-based
Method: as §1

[7] = Homo sapiens, A-375, 48 h, read-out: IC50 A375, antiproliferative, MTT, 48 h exposure
[8] = antiproliferative, MTT, 48 h exposure
[9] = antiproliferative, MTT, 48 h exposure, read-out: IC50 A375
[10] = antiproliferative, MTT, 48 h exposure, read-out: IC50 MDA-MB-231
[11] = IC50 inhibitory activity against telomerase, TRAP-PCR-ELISA, A375 cells, 24 h treatment
[12] = Homo sapiens, MDA-MB-231, 48 h, read-out: IC50 MDA-MB-231, antiproliferative, MTT, 48 h exposure
[13] = read-out: IC50 A375, antiproliferative, MTT, 48 h exposure

T1 sequence (O14746 whole entry): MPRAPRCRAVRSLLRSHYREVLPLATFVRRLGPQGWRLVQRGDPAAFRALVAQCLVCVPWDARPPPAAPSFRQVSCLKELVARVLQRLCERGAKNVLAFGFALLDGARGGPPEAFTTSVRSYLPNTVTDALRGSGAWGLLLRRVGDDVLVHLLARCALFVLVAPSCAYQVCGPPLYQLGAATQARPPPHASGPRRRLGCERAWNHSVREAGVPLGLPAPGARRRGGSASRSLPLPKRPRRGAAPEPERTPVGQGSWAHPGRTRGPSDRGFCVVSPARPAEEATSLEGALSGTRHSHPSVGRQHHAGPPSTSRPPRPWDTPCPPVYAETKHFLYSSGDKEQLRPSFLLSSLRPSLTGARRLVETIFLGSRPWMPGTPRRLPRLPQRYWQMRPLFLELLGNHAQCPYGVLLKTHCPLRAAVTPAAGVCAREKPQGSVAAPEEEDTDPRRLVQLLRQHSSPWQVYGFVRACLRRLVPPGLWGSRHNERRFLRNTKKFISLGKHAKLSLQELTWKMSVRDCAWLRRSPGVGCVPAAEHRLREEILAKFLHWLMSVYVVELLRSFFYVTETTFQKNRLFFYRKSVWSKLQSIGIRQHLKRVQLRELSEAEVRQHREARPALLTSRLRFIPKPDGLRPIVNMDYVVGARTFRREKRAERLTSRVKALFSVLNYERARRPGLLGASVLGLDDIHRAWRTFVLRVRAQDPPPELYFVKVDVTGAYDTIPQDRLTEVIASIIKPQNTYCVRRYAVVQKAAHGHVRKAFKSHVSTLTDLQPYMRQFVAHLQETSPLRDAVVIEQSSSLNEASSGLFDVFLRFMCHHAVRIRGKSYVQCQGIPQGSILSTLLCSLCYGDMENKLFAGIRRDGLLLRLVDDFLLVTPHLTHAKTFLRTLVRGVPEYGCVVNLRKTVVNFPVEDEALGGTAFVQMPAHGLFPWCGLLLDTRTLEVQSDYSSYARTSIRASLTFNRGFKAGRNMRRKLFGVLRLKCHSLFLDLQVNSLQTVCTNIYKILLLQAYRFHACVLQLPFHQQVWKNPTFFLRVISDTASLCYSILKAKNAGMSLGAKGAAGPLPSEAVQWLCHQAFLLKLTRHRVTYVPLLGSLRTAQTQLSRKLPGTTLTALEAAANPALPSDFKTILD

Structure (SMILES): Cc1ccc(S(=O)(=O)n2c3ccccc3c3cc(/C=C/S(=O)(=O)F)ccc32)cc1 [Compound 46]
- IC50 (telomerase; read-out: IC50 inhibitory activity against telomerase, TRAP-PCR-ELISA, A375 cells, 24 h treatment): 1.12 ± 0.27 µM
- IC50 ([1]; Homo sapiens, SMMC-7721, 48 h): 5.37 ± 0.11 µM
- IC50 (human melanoma cell A375; [7]): 1.25 ± 0.07 µM
- IC50 [2]: 1820 ± 110 µM
- IC50 [3]: 2060 ± 180 µM

Structure (SMILES): CC(C)c1cccc(/C=C/S(=O)(=O)F)c1 [Compound 74]
- IC50 [4, 8]: 35.3 ± 1.25 µM
- IC50 [5, 8]: 31.8 ± 0.82 µM
- IC50 (human melanoma cell A375; [9]): 26.8 ± 1.22 µM
- IC50 [6, 10]: 34.7 ± 1.2 µM

Structure (SMILES): O=S(=O)(F)/C=C/c1cccc2c1sc1ccccc12 [Compound 43]
- IC50 [1, 8]: 34.5 ± 0.77 µM
- IC50 [5, 8]: 24.8 ± 0.89 µM
- IC50 (human melanoma cell A375; [9]): 38.6 ± 0.61 µM
- IC50 [6, 10]: 44 ± 1.2 µM

Structure (SMILES): O=S(=O)(F)/C=C/c1cc(Cl)nc(Cl)c1 [Compound 80]
- IC50 (telomerase; [11]): 49.3 ± 2.55 µM
- IC50 ([5]; Homo sapiens, SGC-7901, 48 h): 26.8 ± 1.01 µM

Structure (SMILES): O=S(=O)(F)/C=C/c1ccc(OC(F)(F)F)cc1 [Compound 9]
- IC50 [1, 8]: 9.04 ± 0.99 µM
- IC50 [4, 8]: 38.6 ± 1.22 µM
- IC50 (human melanoma cell A375; [9]): 24.1 ± 0.99 µM
- IC50 [6, 10]: 36.5 ± 2.56 µM

- IC50 ([1]; Homo sapiens, SMMC-7721, antiproliferative, MTT, 48 h exposure): 1.05 ± 0.09 µM
- IC50 ([4]; Homo sapiens, MGC-803, antiproliferative, MTT, 48 h exposure): 0.67 ± 0.08 µM
- IC50 ([5]; Homo sapiens, SGC-7901, antiproliferative, MTT, 48 h exposure): 0.92 ± 0.08 µM
- IC50 (human melanoma cell A375; Homo sapiens, A-375, 48 h, antiproliferative, MTT, 48 h exposure, read-out: IC50 A375): 0.52 ± 0.14 µM
- IC50 ([6]; Homo sapiens, MDA-MB-231, 48 h, antiproliferative, MTT, 48 h exposure, read-out: IC50 MDA-MB-231): 0.81 ± 0.11 µM
Structure (SMILES): COc1cccc2c1C(=O)c1c(O)c3c(c(O)c1C2=O)C[C@@](O)(C(=O)CO)C[C@@H]3O[C@H]1C[C@H](N)[C@H](O)[C@H](C)O1 [AMD, Doxorubicin, reference compound]

Structure (SMILES): COc1ccc(Cl)cc1/C=C/S(=O)(=O)F [Compound 71]
- IC50 (telomerase; [11]): 6.08 ± 1.3 µM
- IC50 ([1]; Homo sapiens, SMMC-7721, 48 h): 23.2 ± 0.78 µM
- IC50 ([4]; Homo sapiens, MGC-803, 48 h): 20.8 ± 0.79 µM
- IC50 (human melanoma cell A375; [7]): 8.65 ± 0.33 µM
- IC50 [6, 12]: 8.09 ± 0.52 µM

Structure (SMILES): CC(=O)c1ccccc1/C=C/S(=O)(=O)F [Compound 25]
- IC50 inhibitory activity against telomerase (telomerase; TRAP-PCR-ELISA, A375 cells, 24 h treatment): no
- IC50 [2]: 2800 ± 310 µM
- IC50 [3]: 2450 ± 250 µM

Structure (SMILES): COc1cc(/C=C/S(=O)(=O)F)cc(OC)c1 [Compound 67]
- IC50 (telomerase; [11]): 1.87 ± 0.47 µM
- IC50 ([1]; Homo sapiens, SMMC-7721, 48 h): 15 ± 0.6 µM
- IC50 ([4]; Homo sapiens, MGC-803, 48 h): 16.1 ± 0.82 µM
- IC50 ([5]; Homo sapiens, SGC-7901, 48 h): 50.3 ± 1.17 µM
- IC50 (human melanoma cell A375; [7]): 8.29 ± 0.42 µM
- IC50 [6, 12]: 12.1 ± 0.37 µM

Structure (SMILES): O=S(=O)(F)/C=C/c1cc(Cl)cc(Cl)c1 [Compound 69]
- IC50 (telomerase; [11]): 4.22 ± 0.71 µM
- IC50 ([1]; Homo sapiens, SMMC-7721, 48 h): 11.5 ± 0.39 µM
- IC50 ([4]; Homo sapiens, MGC-803, 48 h): 25.1 ± 0.54 µM
- IC50 ([5]; Homo sapiens, SGC-7901, 48 h): 36.8 ± 1.25 µM
- IC50 (human melanoma cell A375; [7]): 8.79 ± 0.61 µM
- IC50 [6, 12]: 7.95 ± 0.4 µM

Structure (SMILES): O=S(=O)(F)/C=C/C=C/c1ccccc1 [Compound 48]
- IC50 (telomerase; [11]): 40.2 ± 1.3 µM
- IC50 ([1]; Homo sapiens, SMMC-7721, 48 h): 51 ± 1.91 µM
- IC50 ([5]; Homo sapiens, SGC-7901, 48 h): 49.1 ± 1.39 µM
- IC50 (human melanoma cell A375; [7]): 27.4 ± 1.5 µM
- IC50 [6, 12]: 39.7 ± 1.39 µM

Structure (SMILES): O=S(=O)(F)/C=C/c1ccc2ccccc2c1 [Compound 31]
- IC50 (telomerase; [11]): 0.81 ± 0.07 µM
- IC50 ([1]; Homo sapiens, SMMC-7721, 48 h): 33.5 ± 0.88 µM
- IC50 (human melanoma cell A375; [7]): ~3 µM
- IC50 (human melanoma cell A375; [13]): 3.49 ± 0.2 µM
- IC50 [2]: 1650 ± 180 µM
- IC50 [6, 12]: 24.1 ± 1.18 µM
- IC50 [3]: 1410 ± 100 µM

Structure (SMILES): O=S(=O)(F)/C=C/c1cccs1 [Compound 40]
- IC50 [1, 8]: 35.6 ± 0.55 µM
- IC50 [5, 8]: 51.3 ± 2.55 µM
- IC50 (human melanoma cell A375; [9]): 6.73 ± 0.5 µM
- IC50 [6, 10]: 18.3 ± 0.8 µM

Structure (SMILES): O=S(=O)(F)/C=C/c1ccc(-c2ccccc2)cc1 [Compound 5]
- IC50 (telomerase; [11]): 0.71 ± 0.28 µM
- telomerase potency relative to positive control staurosporine (telomerase; ratio of telomerase IC50 values vs staurosporine): 12 times
- IC50 ([1]; Homo sapiens, SMMC-7721, 48 h): 4.05 ± 0.2 µM
- IC50 ([5]; Homo sapiens, SGC-7901, 48 h): 32.9 ± 1.85 µM
- IC50 (human melanoma cell A375; [7]): 5.84 ± 0.33 µM
- IC50 [2]: 2000 ± 250 µM
- IC50 [6, 12]: 8.39 ± 0.89 µM
- IC50 [3]: 1330 ± 150 µM

Structure (SMILES): O=S(=O)(F)/C=C/c1cccc(/C=C/S(=O)(=O)F)c1 [Compound 70]
- IC50 (telomerase; [11]): 1.01 ± 0.13 µM
- IC50 ([1]; Homo sapiens, SMMC-7721, 48 h): 3 ± 0.18 µM
- IC50 ([4]; Homo sapiens, MGC-803, 48 h): 3.15 ± 0.27 µM
- IC50 ([5]; Homo sapiens, SGC-7901, 48 h): 5.38 ± 0.3 µM
- IC50 (human melanoma cell A375; [7]): ~3 µM
- IC50 (human melanoma cell A375; [13]): 3.09 ± 0.19 µM
- IC50 [6, 12]: 4.22 ± 0.2 µM
